{"source": "patent US4160026A", "about": "(priority 1976, dated 1979)", "key": {"Sarcoma 180": {"test_system": "Sarcoma 180", "experiment": "Solid tumor of Sarcoma 180, treatment after inoculation", "format": "in vivo, ICR-strain mice", "settings": "2 mg/kg, i.p., 5 days after inoculation", "method": "In a separate experiment, male ICR-strain mice (five in each group with an average body weight of 20±2 g) were inoculated in the flank with 7×10^6 live tumor cells of Sarcoma 180 in 0.05 ml. After 24 hours, each group of mice was treated by intraperitoneal injection of 0.1 ml. of saline or sample dissolved in saline for 5 consecutive days. Seven days after the inoculation, all mice were sacrificed and the primary subcutaneous tumor excised and weighed.\nIn the above table, degree (%) of inhibition to the growth of tumor was calculated according to the following equation: [formula]"}, "Solubility": {"experiment": "Solubility", "format": "physicochemical"}, "various bacteria": {"test_system": "various bacteria", "experiment": "Antibacterial activity with combined use of maltose or maltodextrin", "format": "cell-based", "settings": "under the above-mentioned testing conditions", "method": "These paper discs were placed on an upper plate layers of the known mycin-assay incubation medium comprising 0.5% peptone, 0.3% meat extract and 1.5% agar (pH 6) which contained the test microorganism to be incubated therein and which was laid over the lower layer of agar medium in the assaying dish. The incubation was made at a temperature of 37° C. overnight, and subsequently the diameter of the inhibition zones formed around the paper discs was measured. […] These tests were repeated in the same manner as above but with additional incorporation of 1.25 mg/cc of maltotriose into the upper plate layer of the mycin-assay incubation medium."}, "cell-mediated immunity": {"test_system": "cell-mediated immunity", "experiment": "Cell-mediated immunity, delayed hypersensitivity (picryl chloride) in Sarcoma 180-inoculated mice", "format": "in vivo, ICR-JCL strain mice", "settings": "75 mg/kg", "method": "The tests were carried out by the following procedure: groups of ICR-JCL strain mice (six male mice per group, average body weight 31.9±3 g.) were inoculated with the ascites tumor \"Sarcoma 180\" (10^6 cells). 24 Hours after the inoculation of the tumor cells, each of the drug samples to be tested was subcutaneously administered and a known anti-tumor agent (cyclophosphamide) was intraperitoneally administered to the inoculated mice. Two days after the inoculation, an ethanolic solution of 5% picryl chloride was applied onto the hair-shaved abdomen of the mice to establish the sensitization. Subsequently, each drug sample under test was subcutaneously administered once a day for the successive four days. 4 Days after the inoculation, cyclophosphamide was again administered. Nine days after the inoculation, a solution of 1% picryl chloride in olive oil was challenged onto the two sides of both ears of the mice to establish the secondary sensitization. 24 Hours after the secondary sensitization, the degree (%) of increase in thickness of the ears was calculated for the test mice. The extent of the swelling which serves as a measure of stimulating cell-mediated immunity involved can be evaluated from the percentage increase in the ear thickness."}}}
{"smiles": "CO[C@@]12[C@H](COC(N)=O)C3=C(C(=O)C(C)=C(N)C3=O)N1C[C@@H]1N[C@@H]12", "note": "[Mitomycin C, mitomycin C]", "values": [{"measurement": "Degree (%) of inhibition to tumor growth", "setting": "Sarcoma 180", "result": 45, "unit": "%"}, {"measurement": "Tumor weight", "setting": "Sarcoma 180", "result": 0.43, "unit": "g"}]}
{"smiles": "OC[C@H]1O[C@H](O[C@H]2[C@H](O)[C@@H](O)[C@@H](O[C@H]3[C@H](O)[C@@H](O)[C@@H](O[C@H]4[C@H](O)[C@@H](O)[C@@H](O[C@H]5[C@H](O)[C@@H](O)C(O)O[C@@H]5CO)O[C@@H]4CO)O[C@@H]3CO)O[C@@H]2CO)[C@H](O)[C@@H](O)[C@@H]1O", "note": "(stereo partly shown) [maltopentaose]", "values": [{"measurement": "Solubility", "setting": "Solubility; in acetone", "result": "not soluble"}, {"measurement": "Solubility", "setting": "Solubility; in ethanol", "result": "not soluble"}, {"measurement": "Solubility", "setting": "Solubility; in methanol", "result": "sparingly soluble"}, {"measurement": "Solubility", "setting": "Solubility; in water", "result": "readily soluble"}]}
{"smiles": "OC[C@H]1O[C@H](O[C@H]2[C@H](O)[C@@H](O)[C@@H](O[C@H]3[C@H](O)[C@@H](O)[C@@H](O[C@H]4[C@H](O)[C@@H](O)[C@@H](O[C@H]5[C@H](O)[C@@H](O)[C@@H](O[C@H]6[C@H](O)[C@@H](O)C(O)O[C@@H]6CO)O[C@@H]5CO)O[C@@H]4CO)O[C@@H]3CO)O[C@@H]2CO)[C@H](O)[C@@H](O)[C@@H]1O", "note": "(stereo partly shown) [maltohexaose]", "values": [{"measurement": "Solubility", "setting": "Solubility; in acetone", "result": "not soluble"}, {"measurement": "Solubility", "setting": "Solubility; in ethanol", "result": "not soluble"}, {"measurement": "Solubility", "setting": "Solubility; in methanol", "result": "sparingly soluble"}, {"measurement": "Solubility", "setting": "Solubility; in water", "result": "readily soluble"}]}
{"smiles": "OC[C@H]1O[C@H](O[C@H]2[C@H](O)[C@@H](O)[C@@H](O[C@H]3[C@H](O)[C@@H](O)C(O)O[C@@H]3CO)O[C@@H]2CO)[C@H](O)[C@@H](O)[C@@H]1O", "note": "(stereo partly shown) [maltotriose]", "values": [{"measurement": "Antibacterial activity of maltodextrins alone", "setting": "various bacteria", "result": "do not exhibit any antibacterial activity"}]}
{"smiles": "O=P1(N(CCCl)CCCl)NCCCO1", "note": "(stereo not shown) [Cyclophosphamide, N,N-bis (2-chloroethyl)tetrahydro-2H-1,3,2-oxazophosphorin-2-amine-2-oxide]", "values": [{"measurement": "Degree of increase in ear thickness", "setting": "cell-mediated immunity", "result": "4.0 ± 2.60 ×10^-3 cm"}, {"measurement": "percentage increase", "setting": "cell-mediated immunity; untreated = 100.0", "result": 51.9, "unit": "%"}]}
